Measurements from PubChem BioAssay (NCI).
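Tested at 5 concentrations; 48 h exposure; 96-well plates; endpoints linearly interpolated, else capped at highest concentration. The concentration for 50% growth inhibition is given as GI50. TGI is the concentration that stops growth completely.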

Key:
Experiment in all cases: NCI anticancer screen, dose series, 48 h
T-47D breast = tested on: T-47D breast
NCI-H460 lung = tested on: NCI-H460 lung
786-0 renal = tested on: 786-0 renal
HS 578T breast = tested on: HS 578T breast
SK-MEL-5 melanoma = tested on: SK-MEL-5 melanoma
UO-31 renal = tested on: UO-31 renal
HOP-62 NSCLC = tested on: HOP-62 NSCLC
SK-OV-3 ovarian = tested on: SK-OV-3 ovarian
SW-620 colon = tested on: SW-620 colon
SNB-75 CNS = tested on: SNB-75 CNS
OVCAR-3 ovarian = tested on: OVCAR-3 ovarian
MOLT-4 leukemia = tested on: MOLT-4 leukemia
MALME-3M melanoma = tested on: MALME-3M melanoma
NCI/ADR-RES ovarian = tested on: NCI/ADR-RES ovarian
MDA-MB-231 breast = tested on: MDA-MB-231 breast
OVCAR-8 ovarian = tested on: OVCAR-8 ovarian
RXF 393 renal = tested on: RXF 393 renal
SK-MEL-28 melanoma = tested on: SK-MEL-28 melanoma
ACHN renal = tested on: ACHN renal
UACC-257 melanoma = tested on: UACC-257 melanoma
NCI-H226 lung = tested on: NCI-H226 lung
TK-10 renal = tested on: TK-10 renal
OVCAR-5 ovarian = tested on: OVCAR-5 ovarian
SN12C renal = tested on: SN12C renal
HT29 colon = tested on: HT29 colon
RPMI-8226 leukemia = tested on: RPMI-8226 leukemia
BT-549 breast = tested on: BT-549 breast
SR leukemia = tested on: SR leukemia
UACC-62 melanoma = tested on: UACC-62 melanoma
CCRF-CEM leukemia = tested on: CCRF-CEM leukemia
MDA-MB-435 = tested on: MDA-MB-435
OVCAR-4 ovarian = tested on: OVCAR-4 ovarian
HCC-2998 colon = tested on: HCC-2998 colon
NCI-H23 lung = tested on: NCI-H23 lung
PC-3 prostate = tested on: PC-3 prostate
SF-268 CNS = tested on: SF-268 CNS
A498 renal = tested on: A498 renal
LOX IMVI melanoma = tested on: LOX IMVI melanoma
COLO 205 colon = tested on: COLO 205 colon
HL-60(TB) leukemia = tested on: HL-60(TB) leukemia
M14 melanoma = tested on: M14 melanoma
MCF7 breast = tested on: MCF7 breast
CAKI-1 renal = tested on: CAKI-1 renal
IGROV1 ovarian = tested on: IGROV1 ovarian
A549 NSCLC = tested on: A549 NSCLC
DU-145 prostate = tested on: DU-145 prostate
SF-539 CNS = tested on: SF-539 CNS
EKVX NSCLC = tested on: EKVX NSCLC
HCT-116 colon = tested on: HCT-116 colon
K-562 leukemia = tested on: K-562 leukemia
SK-MEL-2 melanoma = tested on: SK-MEL-2 melanoma
KM12 colon = tested on: KM12 colon
NCI-H522 lung = tested on: NCI-H522 lung
U251 CNS = tested on: U251 CNS
SF-295 CNS = tested on: SF-295 CNS
SNB-19 CNS = tested on: SNB-19 CNS
HOP-92 NSCLC = tested on: HOP-92 NSCLC
HCT-15 colon = tested on: HCT-15 colon

c1ccc2cc(C[n+]3ccn(CCCCCCCCCCCCn4cc[n+](Cc5ccc6ccccc6c5)c4)c3)ccc2c1
GI50 (T-47D breast): 554 nM
TGI (T-47D breast): 1780 nM
GI50 (NCI-H460 lung): 814 nM
TGI (NCI-H460 lung): 2960 nM
GI50 (786-0 renal): 1730 nM
TGI (786-0 renal): 6930 nM
GI50 (HS 578T breast): 693 nM
TGI (HS 578T breast): 2480 nM
GI50 (SK-MEL-5 melanoma): 502 nM
TGI (SK-MEL-5 melanoma): 1040 nM
GI50 (UO-31 renal): 2660 nM
TGI (UO-31 renal): 8740 nM
GI50 (HOP-62 NSCLC): 815 nM
TGI (HOP-62 NSCLC): 2650 nM
GI50 (SK-OV-3 ovarian): 661 nM
TGI (SK-OV-3 ovarian): 1800 nM
GI50 (SW-620 colon): 815 nM
TGI (SW-620 colon): 3300 nM
GI50 (SNB-75 CNS): 381 nM
TGI (SNB-75 CNS): 1340 nM
GI50 (OVCAR-3 ovarian): 763 nM
TGI (OVCAR-3 ovarian): 2400 nM
GI50 (MOLT-4 leukemia): 508 nM
TGI (MOLT-4 leukemia): 1020 nM
GI50 (MALME-3M melanoma): 469 nM
TGI (MALME-3M melanoma): 1250 nM
GI50 (NCI/ADR-RES ovarian): 8090 nM
TGI (NCI/ADR-RES ovarian): 25000 nM
GI50 (MDA-MB-231 breast): 866 nM
TGI (MDA-MB-231 breast): 2880 nM
GI50 (OVCAR-8 ovarian): 783 nM
TGI (OVCAR-8 ovarian): 2890 nM
GI50 (RXF 393 renal): 546 nM
TGI (RXF 393 renal): 1670 nM
GI50 (SK-MEL-28 melanoma): 779 nM
TGI (SK-MEL-28 melanoma): 2860 nM
GI50 (ACHN renal): 1330 nM
TGI (ACHN renal): 7710 nM
GI50 (UACC-257 melanoma): 589 nM
TGI (UACC-257 melanoma): 1530 nM
GI50 (NCI-H226 lung): 984 nM
TGI (NCI-H226 lung): 5520 nM
GI50 (TK-10 renal): 992 nM
TGI (TK-10 renal): 4450 nM
GI50 (OVCAR-5 ovarian): 863 nM
TGI (OVCAR-5 ovarian): 3680 nM
GI50 (SN12C renal): 652 nM
TGI (SN12C renal): 2090 nM
GI50 (HT29 colon): 693 nM
TGI (HT29 colon): 1870 nM
GI50 (RPMI-8226 leukemia): 898 nM
TGI (RPMI-8226 leukemia): 4150 nM
GI50 (BT-549 breast): 467 nM
TGI (BT-549 breast): 1170 nM
GI50 (SR leukemia): 679 nM
TGI (SR leukemia): 1670 nM
GI50 (UACC-62 melanoma): 725 nM
TGI (UACC-62 melanoma): 2430 nM
GI50 (CCRF-CEM leukemia): 732 nM
TGI (CCRF-CEM leukemia): 2400 nM
GI50 (MDA-MB-435): 682 nM
TGI (MDA-MB-435): 2530 nM
GI50 (OVCAR-4 ovarian): 694 nM
TGI (OVCAR-4 ovarian): 2530 nM
GI50 (HCC-2998 colon): 1090 nM
TGI (HCC-2998 colon): 4740 nM
GI50 (NCI-H23 lung): 722 nM
TGI (NCI-H23 lung): 2400 nM
GI50 (PC-3 prostate): 794 nM
TGI (PC-3 prostate): 2810 nM
GI50 (SF-268 CNS): 746 nM
TGI (SF-268 CNS): 3010 nM
GI50 (A498 renal): 515 nM
TGI (A498 renal): 1620 nM
GI50 (LOX IMVI melanoma): 483 nM
TGI (LOX IMVI melanoma): 941 nM
GI50 (COLO 205 colon): 441 nM
TGI (COLO 205 colon): 833 nM
GI50 (HL-60(TB) leukemia): 545 nM
TGI (HL-60(TB) leukemia): 1080 nM
GI50 (M14 melanoma): 835 nM
TGI (M14 melanoma): 3500 nM
GI50 (MCF7 breast): 512 nM
TGI (MCF7 breast): 1170 nM
GI50 (CAKI-1 renal): 3550 nM
TGI (CAKI-1 renal): 25000 nM
GI50 (IGROV1 ovarian): 521 nM
TGI (IGROV1 ovarian): 1160 nM
GI50 (A549 NSCLC): 744 nM
TGI (A549 NSCLC): 3570 nM
GI50 (DU-145 prostate): 1030 nM
TGI (DU-145 prostate): 3800 nM
GI50 (SF-539 CNS): 807 nM
TGI (SF-539 CNS): 2910 nM
GI50 (EKVX NSCLC): 894 nM
TGI (EKVX NSCLC): 4200 nM
GI50 (HCT-116 colon): 848 nM
TGI (HCT-116 colon): 3210 nM
GI50 (K-562 leukemia): 429 nM
TGI (K-562 leukemia): 1190 nM
GI50 (SK-MEL-2 melanoma): 573 nM
TGI (SK-MEL-2 melanoma): 1270 nM
GI50 (KM12 colon): 553 nM
TGI (KM12 colon): 1410 nM
GI50 (NCI-H522 lung): 470 nM
TGI (NCI-H522 lung): 1250 nM
GI50 (U251 CNS): 521 nM
TGI (U251 CNS): 2530 nM
GI50 (SF-295 CNS): 654 nM
TGI (SF-295 CNS): 2130 nM
GI50 (SNB-19 CNS): 773 nM
TGI (SNB-19 CNS): 3490 nM
GI50 (HOP-92 NSCLC): 500 nM
TGI (HOP-92 NSCLC): 1400 nM
GI50 (HCT-15 colon): 1480 nM
TGI (HCT-15 colon): 9150 nM
